The text below walks through data of patent publication US11918571B2, “Compounds and their methods of use” (Praxis Precision Medicines, Inc., priority 2017, dated 2024).

Each structure is given as a SMILES string. Bounds are passed on as bounds.

What is called inhibition is the share of the control response that was lost under treatment.

This assay deals with T1, human Nav1.6 (hNav1.6) (Homo sapiens, UniProt Q9UQD0).
T1 construct: expressed in transfected cells; host or cells: HEK-293 (G418 selection)
T1 sequence (Q9UQD0 whole entry): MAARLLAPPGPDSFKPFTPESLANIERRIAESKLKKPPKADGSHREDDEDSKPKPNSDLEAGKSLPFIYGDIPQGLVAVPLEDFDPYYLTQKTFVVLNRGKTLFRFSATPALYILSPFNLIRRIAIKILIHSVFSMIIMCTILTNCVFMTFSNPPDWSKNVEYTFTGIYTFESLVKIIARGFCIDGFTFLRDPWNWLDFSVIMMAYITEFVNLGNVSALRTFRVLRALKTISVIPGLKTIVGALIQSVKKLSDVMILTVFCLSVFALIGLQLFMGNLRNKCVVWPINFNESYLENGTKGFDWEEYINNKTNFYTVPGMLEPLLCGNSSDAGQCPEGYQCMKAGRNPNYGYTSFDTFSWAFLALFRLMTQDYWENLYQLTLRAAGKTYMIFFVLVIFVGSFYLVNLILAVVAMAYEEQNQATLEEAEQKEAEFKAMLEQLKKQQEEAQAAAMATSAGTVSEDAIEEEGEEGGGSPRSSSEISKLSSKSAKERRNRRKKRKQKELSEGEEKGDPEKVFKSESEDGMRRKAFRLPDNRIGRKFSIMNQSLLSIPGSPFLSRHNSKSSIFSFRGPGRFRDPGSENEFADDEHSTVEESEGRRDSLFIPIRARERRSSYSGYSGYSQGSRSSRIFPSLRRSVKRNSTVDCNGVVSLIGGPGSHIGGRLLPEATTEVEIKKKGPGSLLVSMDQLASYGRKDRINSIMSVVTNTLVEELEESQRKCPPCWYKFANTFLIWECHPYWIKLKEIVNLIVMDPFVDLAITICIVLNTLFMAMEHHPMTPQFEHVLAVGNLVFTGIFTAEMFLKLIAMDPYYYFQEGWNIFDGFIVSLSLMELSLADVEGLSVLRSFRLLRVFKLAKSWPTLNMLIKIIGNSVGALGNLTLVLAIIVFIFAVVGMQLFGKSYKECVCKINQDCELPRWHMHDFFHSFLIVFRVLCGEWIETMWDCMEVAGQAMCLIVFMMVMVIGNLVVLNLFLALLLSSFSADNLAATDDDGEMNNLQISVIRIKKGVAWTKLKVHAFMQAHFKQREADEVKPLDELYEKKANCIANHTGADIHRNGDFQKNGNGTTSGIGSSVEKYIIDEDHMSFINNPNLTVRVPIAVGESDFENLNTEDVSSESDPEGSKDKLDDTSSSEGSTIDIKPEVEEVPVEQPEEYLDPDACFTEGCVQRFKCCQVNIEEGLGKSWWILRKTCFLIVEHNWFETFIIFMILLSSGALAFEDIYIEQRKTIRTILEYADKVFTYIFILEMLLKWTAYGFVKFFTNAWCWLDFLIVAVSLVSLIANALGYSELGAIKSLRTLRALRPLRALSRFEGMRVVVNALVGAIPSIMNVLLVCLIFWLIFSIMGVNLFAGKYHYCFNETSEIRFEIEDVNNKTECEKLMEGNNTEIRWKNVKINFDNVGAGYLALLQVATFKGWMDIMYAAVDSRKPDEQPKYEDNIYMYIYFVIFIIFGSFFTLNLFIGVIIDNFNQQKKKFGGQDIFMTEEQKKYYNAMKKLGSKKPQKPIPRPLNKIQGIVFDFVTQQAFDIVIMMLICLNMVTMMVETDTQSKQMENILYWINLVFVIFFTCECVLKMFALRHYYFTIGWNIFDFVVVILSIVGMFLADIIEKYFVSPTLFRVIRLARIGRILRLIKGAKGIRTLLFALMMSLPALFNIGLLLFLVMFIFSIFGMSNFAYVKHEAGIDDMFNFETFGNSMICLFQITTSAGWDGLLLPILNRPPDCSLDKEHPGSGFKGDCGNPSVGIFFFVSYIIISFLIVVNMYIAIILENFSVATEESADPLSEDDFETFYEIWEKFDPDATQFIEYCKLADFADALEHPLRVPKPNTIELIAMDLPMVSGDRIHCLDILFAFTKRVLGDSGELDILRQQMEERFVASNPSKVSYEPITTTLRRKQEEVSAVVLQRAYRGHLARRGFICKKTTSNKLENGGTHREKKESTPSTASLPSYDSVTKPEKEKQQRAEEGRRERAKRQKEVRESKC
As to the kind of experiment: Modulation of late sodium current (INaL), PatchXpress electrophysiology, ATX-II evoked. The note with it: HEK293; 1 μM compound; HEK-293 cells expressing recombinant human Nav1.6; late current evoked by 300 nM ATX-II; read-out: INaL v1.6 (1 μM, % Inhibition). In kind it is cell-based. The method, then: Functional characterization of exemplary compounds to modulate INaL expressed by the Nav1.6 voltage-gated sodium channel was accomplished using the PatchXpress™ high throughput electrophysiology platform (Molecular Devices, Sunnyvale, CA). HEK-293 cells expressing recombinant, human Nav1.6 (hNav1.6) were grown in DMEM/high-glucose Dulbecco's modified, 10% FBS, 2 mM sodium pyruvate, 10 mM HEPES and 400 μg/mL G418. Cells were grown to 50%-80% confluency prior to harvesting. Trypsinized cells were washed, allowed to recover for 1 hour and then resuspended in extracellular recording solution at a concentration of 1×10^6 cells/ml. The onboard liquid handling facility of the PatchXpress was used for dispensing cells and applying test compounds. Nay late currents were evoked by the application of 300 nM ATX-II. INaL was evoked by depolarizing pulses to 0 mV for 200 ms from a non-inactivating holding potential (e.g., −120 mV) at a frequency of 0.1 Hz. INaL amplitude and stability were determined by analyzing the mean current amplitude over the final 20 ms of the test pulse. Following steady state block with exemplary compounds (e.g., as described herein), a Na^+ free solution containing an impermeant cation (e.g., Choline or NDMG) was added to confirm the identify of the sodium current.
Results from this assay relating to percent inhibition of INaL at hNaV1.6 (measured using a procedure similar to described above but using HEK-293 cells expressing recombinant, human Nay 1.6 (h Nay 1.6) at 1 μM are summarized in Table 1 below. In this table, “A” indicates inhibition of less than 30%; “B” indicates inhibition of between about 30% to about 70%; and “C” indicates inhibition of greater than 70%.
Regarding `COCc1cc(OC(F)(F)F)ccc1-c1ccn2nncc2c1` [Compound 2], the inhibition at 1 µM was above 70%.

As for `Cc1cc(-c2cnc(O[C@@H](C)C(F)(F)F)c(F)c2)cc2cnnn12` [Compound 45], the inhibition at 1 µM is above 70%.

Take `Cc1cc(-c2cnc(O[C@H](C)C(F)(F)F)c(F)c2)cc2cnnn12` [Compound 44]: the inhibition at 1 µM was 30 to 70%.

In the case of `Cc1cc(OC(F)(F)F)ccc1-c1ccn2nnc(C)c2c1` [Compound 3], the inhibition at 1 µM was above 70%.

As to `COc1cc(OC(F)(F)F)ccc1-c1ccn2nnc(C)c2c1` [Compound 43], the inhibition at 1 µM was above 70%.

On to `Fc1cc(-c2ccn3nncc3c2)cnc1OCC(F)(F)F` [Compound 10], for which the inhibition at 1 µM was in the range of 30 to 70%.

Consider `Cc1nnn2ccc(-c3cnc(OC(C)(C)C(F)(F)F)c(F)c3)cc12` [Compound 25], for which the inhibition at 1 µM was above 70%.

As for `[2H]c1nnn2ccc(-c3cnc(OC4(C(F)(F)F)CCC4)c(F)c3)cc12` [Compound 36], the inhibition at 1 µM was above 70%.

In the case of `Cc1nnn2ccc(-c3ccc(OC(F)(F)F)cc3)cc12` [Compound 7], the inhibition at 1 µM is above 70%.

On to `C[C@H](Oc1ncc(-c2ccn3nnc(C(F)F)c3c2)cc1F)C(F)(F)F` [Compound 38], for which the inhibition at 1 µM was above 70%.

Take `[2H]C([2H])(OC)c1nnn2ccc(-c3cnc(OC(C)(C)C(F)(F)F)c(F)c3)cc12` [Compound 41]: the inhibition at 1 µM was above 70%.

As for `C[C@H](Oc1ncc(-c2ccn3nncc3c2)cc1F)C(F)(F)F` [Compound 18, 5-[5-fluoro-6-[(15)-2,2,2-trifluoro-1-methyl-ethoxy]-3-pyridyl]triazolo[1,5-a]pyridine], the inhibition at 1 µM was above 70%.

With `CC(C)(Oc1ncc(-c2ccn3nncc3c2)cc1F)C(F)(F)F` [Compound 24], the inhibition at 1 µM is above 70%.

With `COCc1nnn2ccc(-c3cnc(OC(C)(C)C(F)(F)F)c(F)c3)cc12` [Compound 26], the inhibition at 1 µM is above 70%.

Regarding `Cc1cc(OC(F)(F)F)ccc1-c1cc(C)n2nncc2c1` [Compound 5], the inhibition at 1 µM is above 70%.

In the case of `[2H]c1nnn2ccc(-c3cnc(O[C@@H](C)C(F)(F)F)c(F)c3)cc12` [Compound 33], the inhibition at 1 µM was above 70%.

Take `Cc1cc(OC(F)(F)F)ccc1-c1ccn2nnc(C(F)(F)F)c2c1` [Compound 4]: the inhibition at 1 µM is above 70%.

With `[2H]c1nnn2ccc(-c3cnc(OCC(F)(F)F)c(F)c3)cc12` [Compound 34], the inhibition at 1 µM was above 70%.

As to `COCc1nnn2ccc(-c3ccc(OC(F)(F)F)cc3C)cc12` [Compound 13], the inhibition at 1 µM was above 70%.

For the molecule `Cc1nnn2ccc(-c3ccc(C4(C#N)CC4)cc3)cc12` [Compound 6], the inhibition at 1 µM fell in the range of 30 to 70%.

As to `Cc1cc(-c2cnc(OCC(F)(F)F)c(F)c2)cc2cnnn12` [Compound 46], the inhibition at 1 µM lay within 30 to 70%.

Regarding `Cc1cc(OC(F)(F)F)ccc1-c1ccn2nncc2c1` [Compound 1, 5-[2-methyl-4-(trifluoromethoxy)phenyl]triazolo[1,5-a]pyridine], the inhibition at 1 µM lay in the range of 30 to 70%.

Take `Fc1cc(-c2ccn3nncc3c2)cnc1OC1CC(F)(F)C1` [Compound 11]: the inhibition at 1 µM is above 70%.

Take `COCc1nnn2ccc(-c3cnc(OCC(F)(F)F)c(F)c3)cc12` [Compound 20]: the inhibition at 1 µM is 30 to 70%.

As for `COCc1nnn2ccc(-c3cnc(OC4(C(F)(F)F)CCC4)c(F)c3)cc12` [Compound 29], the inhibition at 1 µM was above 70%.

For `Cc1nnn2ccc(-c3cnc(O[C@H](C)C(F)(F)F)c(F)c3)cc12` [Compound 21], the inhibition at 1 µM was above 70%.

With `[2H]C([2H])([2H])OCc1nnn2ccc(-c3cnc(OC(C)(C)C(F)(F)F)c(F)c3)cc12` [Compound 40], the inhibition at 1 µM is above 70%.

Consider `CC(C)(Oc1ncc(-c2ccn3nnc(C(F)F)c3c2)cc1F)C(F)(F)F` [Compound 39], for which the inhibition at 1 µM was above 70%.

On to `[2H]c1nnn2ccc(-c3cnc(O[C@H](C)C(F)(F)F)c(F)c3)cc12` [Compound 32], for which the inhibition at 1 µM was above 70%.

On to `COCc1nnn2ccc(-c3cnc(O[C@@H](C)C(F)(F)F)c(F)c3)cc12` [Compound 27], for which the inhibition at 1 µM was above 70%.

Turning to `C[C@@H](Oc1ncc(-c2ccn3nnc(C(F)F)c3c2)cc1F)C(F)(F)F` [Compound 37], the inhibition at 1 µM is above 70%.

On to `FC1(F)C[C@@H]1c1ccc(-c2ccn3nncc3c2)cc1` (single isomer, unassigned) [Compound 23-1], for which the inhibition at 1 µM was in the range of 30 to 70%.

For the molecule `C[C@@H](Oc1ncc(-c2ccn3nncc3c2)cc1F)C(F)(F)F` [Compound 17, 5-[5-fluoro-6-[(1R)-2,2,2-trifluoro-1-methyl-ethoxy]-3-pyridyl]triazolo[1,5-a]pyridine], the inhibition at 1 µM was above 70%.

Take `FC(F)(F)COc1ccc(-c2ccn3nncc3c2)cn1` [Compound 15]: the inhibition at 1 µM was above 70%.

Turning to `FC1(F)C[C@H]1c1ccc(-c2ccn3nncc3c2)cc1` (single isomer, unassigned) [Compound 23-2], the inhibition at 1 µM is above 70%.

`[2H]C([2H])([2H])c1nnn2ccc(-c3cnc(OC(C)(C)C(F)(F)F)c(F)c3)cc12` [Compound 42]: the inhibition at 1 µM was above 70%.

Take `Cc1nnn2ccc(-c3cnc(OC4CC(F)(F)C4)c(F)c3)cc12` [Compound 12]: the inhibition at 1 µM was above 70%.

With `C[C@H](Oc1ncc(-c2ccn3nnc(C(F)(F)F)c3c2)cc1F)C(F)(F)F` [Compound 31], the inhibition at 1 µM was above 70%.

Regarding `C[C@@H](Oc1ncc(-c2ccn3nnc(C(F)(F)F)c3c2)cc1F)C(F)(F)F` [Compound 30], the inhibition at 1 µM is above 70%.

As to `COCc1cc(-c2ccn3nncc3c2)ccc1OC(F)(F)F` [Compound 16], the inhibition at 1 µM is 30 to 70%.

As for `FC(F)Oc1ccc(-c2ccn3nncc3c2)cc1` [Compound 14], the inhibition at 1 µM fell in the range of 30 to 70%.

Take `[2H]c1nnn2ccc(-c3cnc(OC(C)(C)C(F)(F)F)c(F)c3)cc12` [Compound 35]: the inhibition at 1 µM was above 70%.

For `Cc1nnn2ccc(-c3cnc(O[C@@H](C)C(F)(F)F)c(F)c3)cc12` [Compound 22], the inhibition at 1 µM is above 70%.

Turning to `FC(F)(F)Oc1ccc(-c2ccn3nncc3c2)cc1` [Compound 9], the inhibition at 1 µM is above 70%.

Take `Cc1nnn2ccc(-c3cnc(OCC(F)(F)F)c(F)c3)cc12` [Compound 8]: the inhibition at 1 µM was 30 to 70%.
